{
  "source": "patent US20190374506A1",
  "about": "“COMPOSITIONS AND METHODS FOR TREATING CANCER” (BETH ISREAL DEACONESS MEDICAL CENTER, priority 2016, published 2019)",
  "key": {"NEDD4-1": {"target": "NEDD4-1", "details": "previous study (Aronchik et al., 2014); read-out: calculated equilibrium dissociation constant (Kd) with NEDD4-1; cited from earlier work"}, "[1]": {"test_system": "PTEN/AKT pathway in DU145 cells (PTEN competent)", "assay": "Western blot analysis of PTEN/AKT pathway in DU145 cells", "format": "cell-based, human", "details": "different doses of I3C for 3 Days", "method": "FIG. 11B provides an analysis of effects of I3C on PTEN/AKT pathway in DU145 or PC3 cells by western blot analysis. Cells were treated with different doses of I3C for 3 Days, and followed by western blot analysis. Whether targeting WWP1/NEDD4-1, thereby enhancing PTEN dimerization and function, could offer a unique opportunity to treat MYC-driven cancers was investigated. […] As there is no small pharmacological inhibitor currently available to suppress/inhibit WWP1 activity, Indole-3-Carbinol (I3C), a potential WWP1 inhibitor, which suppresses the WWP1 activity through binding to its HECT domain, was used. First, to assess the on-target effects of I3C towards WWP1, Wwp1^−/− MEFs were used. […] Additionally, two independent PTEN stably knocked-down cells were generated. […] Western Blotting and Immunoprecipitation. For western blotting, cells were lysed in RIPA buffer (Boston BioProducts) supplemented with protease (Roche) and phosphatase (Roche) inhibitor. Proteins were separated on NuPAGE 4-12% Bis-Tris gradient gels (Invitrogen), transferred to polyvinylidine difluoride membranes (Immobilon P, Millipore) and the blots were probed with the indicated antibodies. For immunoprecipitation, PC3, 293T and MEF cells were transfected with the indicated expression vectors by using LIPOFECTAMIN 2000 (Life Technologies). 24 hours after transfection, cells were lysed in RIPA buffer with protease (Roche) and phosphatase (Roche) inhibitor. 500 μg of total lysates were pre-cleared for 30 minutes at 4° C., and then immunoprecipitated with anti-Myc (Cell Signaling Technology 9B11, 1:500), or anti-PTEN (Cell Signaling Technology 9559, 1:500) antibody overnight at 4° C. The Protein-A or Protein-G sepharose beads (GE Healthcare) were then added and incubated for another 2 hours. The immunoprecipitates were washed with RIPA buffer three times. In denaturing conditions, standard Laemmli-Buffer with 5% final concentration of β-mercaptoethanol was added to the samples, which were then boiled and separated on NuPAGE 4-12% Bis-Tris gradient gels (Invitrogen). […]"}, "DU145 cells": {"test_system": "DU145 cells", "assay": "Growth curves, colorimetric MTT assay, DU145 cells", "format": "cell-based, human", "details": "various doses of I3C for 5 Days", "excerpt": "(§1) FIG. 11C provides growth curves of DU145 (PTEN competent) or PC3 cells (PTEN null) treated with various doses of I3C for 5 Days, and then assayed with colorimetric MTT assay (three experiments). Whether targeting WWP1/NEDD4-1, thereby enhancing PTEN dimerization and function, could offer a unique opportunity to treat MYC-driven cancers was investigated. […] As there is no small pharmacological inhibitor currently available to suppress/inhibit WWP1 activity, Indole-3-Carbinol (I3C), a potential WWP1 inhibitor, which suppresses the WWP1 activity through binding to its HECT domain, was used. First, to assess the on-target effects of I3C towards WWP1, Wwp1^−/− MEFs were used. […] Additionally, two independent PTEN stably knocked-down cells were generated."}, "[2]": {"test_system": "Wwp1^+/+ and Wwp1^−/− MEFs", "assay": "Growth curves of Wwp1+/+ and Wwp1-/- MEFs treated with I3C", "format": "cell-based, mouse", "details": "100 μM I3C", "method": "FIG. 10C provides growth curves of Wwp1^+/+ and Wwp1^−/− MEFs treated with 100 μM I3C. Representative pictures of the cells at Day 3 are shown below. Whether targeting WWP1/NEDD4-1, thereby enhancing PTEN dimerization and function, could offer a unique opportunity to treat MYC-driven cancers was investigated. […] As there is no small pharmacological inhibitor currently available to suppress/inhibit WWP1 activity, Indole-3-Carbinol (I3C), a potential WWP1 inhibitor, which suppresses the WWP1 activity through binding to its HECT domain, was used. First, to assess the on-target effects of I3C towards WWP1, Wwp1^−/− MEFs were used. […] Additionally, two independent PTEN stably knocked-down cells were generated. […] At 8 hours post-transfection, cells were trypsinized, resuspended, and seeded in three separate 12-well plates at a final density of 20,000/well. Starting the following day (d0), one plate per day was washed once with PBS, fixed in 10% formalin solution for 10 minutes at room temperature, and kept in PBS at 4° C. On the last day, all of the wells were stained with crystal violet. After lysis with 10% acetic acid, optical density was read at 595 nm."}, "[3]": {"details": "literature statement; cited from earlier work"}, "Hi-Myc prostate spheres": {"test_system": "Hi-Myc prostate spheres", "assay": "Prostate sphere forming ability of WT or Hi-Myc prostatic epithelial cells", "format": "cell-based, mouse", "details": "Hi-Myc spheres at P1 passage, 10 μM I3C for 3 Day (low dose)"}, "PC3 cells (PTEN-null)": {"test_system": "PC3 cells (PTEN-null)", "assay": "Growth curves, colorimetric MTT assay, PC3 cells", "format": "cell-based, human", "details": "various doses of I3C for 5 Days", "excerpt": "as §1"}, "WWP1": {"target": "WWP1 (Homo sapiens, UniProt Q9H0M0)", "sequence (Q9H0M0 whole entry)": "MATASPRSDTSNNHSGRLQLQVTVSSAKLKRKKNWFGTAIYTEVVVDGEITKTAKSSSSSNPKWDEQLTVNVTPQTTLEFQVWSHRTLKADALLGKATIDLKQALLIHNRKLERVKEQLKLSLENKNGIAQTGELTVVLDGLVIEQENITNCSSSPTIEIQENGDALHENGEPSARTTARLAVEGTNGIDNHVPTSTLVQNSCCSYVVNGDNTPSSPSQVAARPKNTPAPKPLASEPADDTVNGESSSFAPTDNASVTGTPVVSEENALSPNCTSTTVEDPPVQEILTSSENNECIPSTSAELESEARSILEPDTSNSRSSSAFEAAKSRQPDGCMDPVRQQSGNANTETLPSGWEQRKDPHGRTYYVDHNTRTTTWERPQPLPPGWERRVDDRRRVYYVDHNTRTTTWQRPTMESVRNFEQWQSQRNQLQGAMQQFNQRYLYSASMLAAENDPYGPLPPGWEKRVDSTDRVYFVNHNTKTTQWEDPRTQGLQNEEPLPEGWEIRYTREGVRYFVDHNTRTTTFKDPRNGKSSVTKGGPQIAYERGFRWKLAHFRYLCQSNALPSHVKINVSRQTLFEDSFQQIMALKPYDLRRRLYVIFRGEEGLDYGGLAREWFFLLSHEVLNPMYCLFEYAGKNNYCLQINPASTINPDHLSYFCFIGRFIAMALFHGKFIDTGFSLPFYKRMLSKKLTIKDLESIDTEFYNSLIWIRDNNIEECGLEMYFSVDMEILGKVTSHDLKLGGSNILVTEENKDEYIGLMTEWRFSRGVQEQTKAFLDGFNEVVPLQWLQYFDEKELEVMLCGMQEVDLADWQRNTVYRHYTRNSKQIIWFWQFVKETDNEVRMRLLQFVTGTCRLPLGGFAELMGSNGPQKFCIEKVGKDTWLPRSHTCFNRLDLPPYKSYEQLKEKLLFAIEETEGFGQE", "assay": "MicroScale Thermophoresis (MST) binding analysis of I3C towards WWP1", "excerpt": "FIG. 10B provides the MST analysis of I3C towards WWP1. […] When I3C was superimposed onto the covalent inhibitor and WWP1 onto NEDD4-1, a model was generated showing I3C-bound WWP1 with the binding pocket formed by residues F577, L630, Y628, C629, N650, and Y656. […] The experiments of this example next confirmed this hypothesis by MicroScale Thermophoresis (MST) binding analysis."}, "[4]": {"test_system": "AKT activation in prostate spheres", "assay": "Western blot analysis of prostate spheres at P1 passage", "format": "cell-based, mouse", "details": "20 μM I3C for 3 Days (low dose)", "method": "FIG. 11G is a Western blot analysis of prostate spheres at P1 passage treated with 20 μM I3C for 3 Days."}},
  "data": [
    {"smiles": "OCc1c[nH]c2ccccc12", "note": "[I3C, indole-3-carbinol]", "values": [
      {"measurement": "Kd", "setting": "NEDD4-1", "value": "~88.1", "unit": "µM"},
      {"measurement": "AKT activation", "setting": "[1]", "value": "dose-dependent AKT suppression"},
      {"measurement": "PTEN protein level", "setting": "[1]", "value": "without affecting PTEN protein level"},
      {"measurement": "apoptosis", "setting": "[1]", "value": "concomitant induction of apoptosis"},
      {"measurement": "cell growth", "setting": "DU145 cells", "value": "drastic inhibition of cell growth"},
      {"measurement": "sensitivity of Wwp1−/− cells to I3C treatment compared to Wwp1+/+ cells", "setting": "[2]", "value": "more resistant"},
      {"measurement": "toxicity", "setting": "[3]", "value": "negligible toxicity"},
      {"measurement": "prostate sphere-forming ability", "setting": "Hi-Myc prostate spheres", "value": "drastically suppressed"},
      {"measurement": "cell growth", "setting": "PC3 cells (PTEN-null)", "value": "only modestly suppressed cell growth"},
      {"measurement": "binding affinity for WWP1 compared to NEDD4-1", "setting": "WWP1; MST Kd for WWP1 versus literature Kd for NEDD4-1", "value": "significantly stronger binding affinity"},
      {"measurement": "Kd", "setting": "WWP1; MST binding analysis, read-out: dissociation constant (Kd) of I3C binding to WWP1", "value": "~0.12", "unit": "µM"},
      {"measurement": "AKT activation driven by MYC expression", "setting": "[4]; Hi-Myc prostate spheres", "value": "abolished AKT activation"},
      {"measurement": "apoptosis in Hi-Myc prostate spheres", "setting": "[4]; Hi-Myc prostate spheres", "value": "concomitant apoptosis"},
      {"measurement": "AKT activation and apoptosis in WT prostate spheres", "setting": "[4]; WT prostate spheres", "value": "not in WT prostate spheres"}
    ]}
  ]
}
